Reference: patent US20250382268A1, “METHODS AND COMPOSITIONS FOR SELECTIVELY INHIBITING PATHOGENIC MICROBES” (priority 2019, published 2025)
Values after ≈ are worked out from the molar mass of the structure shown. Read-outs that look alike come from different tables or passages of the source.

What was measured:
[1] = test system: Bacillus thuringiensis; assay: microbe, parasite or virus in culture; type: cell-based
[2] = test system: Candida glabrata; assay: microbe, parasite or virus in culture; type: cell-based; settings: Nakaseomyces glabratus
[3] = test system: Burkholderia cenocepacia; assay: microbe, parasite or virus in culture; type: cell-based
[4] = test system: Burkholderia thailandensis; assay: microbe, parasite or virus in culture; type: cell-based
[5] = test system: Bacillus subtilis; assay: MIC/MBC against Bacillus subtilis strains; type: cell-based
[6] = test system: branched chain amino acid synthesis pathway; assay: Transcriptomic (RNAseq) and metabolic mechanism of action studies
[7] = test system: S. aureus; assay: SYTOX green cell permeability assay on S. aureus; type: cell-based, Staphylococcus aureus; settings: concentrations relative to the MIC, FIG. 1A
[8] = test system: HepG2 cells; assay: Cytotoxicity MTT assay in HepG2 cells; type: cell-based; settings: Homo sapiens
Procedure: Additionally, the antimicrobial compounds were analyzed for cytotoxicity. […] We utilized the standard MTT assay (Promega CellTiter 96) and GraphPad Prism 7 software to determine EC50 values for each analogue. Briefly, 20,000 HepG2 cells in 200 μl of the ATCC recommended media were seeded in each well of a 96-well plate with a moisture barrier created in the outermost wells. The cells were allowed to attach overnight at 37° C., and then observed under phase contrast microscopy for proper morphological characteristics. […] Once incubations were complete, the spectrophotometric absorbance of the samples was measured at a wavelength of 595 nm. […] For the HepaRG assay, NoSpin HepaRG™ cells (Lonza, cat #NSHPRG) were thawed and plated with 20,000 cells per well. They were allowed to attach for 4 h (optimal DME profile per Lonza's testing) before dosing following the identical protocol as above.

[9] = test system: S. aureus; assay: Macromolecular synthesis assay (glucosamine incorporation into cell wall); type: cell-based, Staphylococcus aureus; settings: dose-response, FIG. 2A-2B
[10] = test system: HepG2 cells; assay: SYTOX permeabilization assay on HepG2 cells; type: cell-based; settings: up to 4× MIC, FIG. 2C
[11] = test system: Staphylococcus aureus; assay: microbe, parasite or virus in culture

## Brc1ccc(Oc2c[nH]c3cc(Br)ccc23)cc1 [174AC, 6-bromo-3-(4-bromophenoxy)-1H-indole]
[1]
  MBC: 50 µg/mL (≈ 136 µM)
[1]; Bacillus thuringiensis Berliner ATCC: 10792
  MIC: 8 µg/mL (≈ 21.8 µM)
[2]
  MIC: 25 µg/mL (≈ 68.1 µM)
[3]
  MIC: > 50 µg/mL
[4]
  MIC: > 50 µg/mL
[5]
  MBC: 16 µg/mL (≈ 43.6 µM)
  MIC: 8 µg/mL (≈ 21.8 µM)

## Brc1ccc2[nH]cc(Sc3ccccc3Br)c2c1 [Compound 174I, 5-bromo-3-((2-bromophenyl)thio)-1H-indole]
[6]
  mechanism of action by transcriptomic and metabolic studies: branched chain amino acid biosynthesis inhibition
[7]
  cell permeability by SYTOX green fluorescence: clear dose-dependent increase in permeability
[8]
  EC50: 25.4 µg/mL (≈ 66.3 µM)
[9]
  cell wall synthesis inhibition (glucosamine incorporation): substantial cell wall synthesis inhibition
[10]
  permeabilization of HepG2 cells (SYTOX): no permeabilization of HepG2 cells

## Nc1ccccc1Sc1c[nH]c2ccc(Br)cc12 [Compound 174M, 2-((5-bromo-1H-indol-3-yl)thio)aniline]
[6]
  mechanism of action by transcriptomic and metabolic studies: branched chain amino acid biosynthesis inhibition
[11]; MRSA, read-out: Staphylococcus aureus MIC, MRSA strain HM-467
  MIC: 12.5 µg/mL (≈ 39.2 µM)
[11]; MRSA, read-out: Staphylococcus aureus MIC, MRSA strain NK-41886
  MIC: 12.5 µg/mL (≈ 39.2 µM)
[11]; MRSA, read-out: Staphylococcus aureus MIC, MRSA strain NR-13533
  MIC: 12.5 µg/mL (≈ 39.2 µM)
[11]; MRSA, read-out: Staphylococcus aureus MIC, MRSA strain NR-28983
  MIC: 12.5 µg/mL (≈ 39.2 µM)
[11]; MRSA, read-out: Staphylococcus aureus MIC, MRSA strain NR-41875
  MIC: 12.5 µg/mL (≈ 39.2 µM)
[11]; MRSA, read-out: Staphylococcus aureus MIC, MRSA strain NR-41876
  MIC: 12.5 µg/mL (≈ 39.2 µM)
[11]; MRSA, read-out: Staphylococcus aureus MIC, MRSA strain NR-41877
  MIC: 25 µg/mL (≈ 78.3 µM)
[11]; MRSA, read-out: Staphylococcus aureus MIC, MRSA strain NR-41878
  MIC: 12.5 µg/mL (≈ 39.2 µM)
[11]; read-out: Staphylococcus aureus MIC, VSSA NR-49121
  MIC: 12.5 µg/mL (≈ 39.2 µM)
[8]
  EC50: 26.5 µg/mL (≈ 83 µM)
[10]
  permeabilization of HepG2 cells (SYTOX): no permeabilization of HepG2 cells

## CN[C@H](CC(C)C)C(=O)N[C@H]1C(=O)N[C@@H](CC(N)=O)C(=O)N[C@H]2C(=O)N[C@H]3C(=O)N[C@H](C(=O)N[C@H](C(=O)O)c4cc(O)cc(O)c4-c4cc3ccc4O)[C@H](O)c3ccc(c(Cl)c3)Oc3cc2cc(c3O[C@@H]2O[C@H](CO)[C@@H](O)[C@H](O)[C@H]2O[C@H]2C[C@](C)(N)[C@H](O)[C@H](C)O2)Oc2ccc(cc2Cl)[C@H]1O [vancomycin, reference compound]
[9]
  cell wall synthesis inhibition (glucosamine incorporation): increasingly inhibits glucosamine from incorporating into a cell wall
